In US10806142B2, “2-amino-5-ketoxime-pyrimidine derivatives and their use for controlling undesired plant growth” (Bayer CropScience Aktiengesellschaft, priority 2015, dated 2020):

Columns and labels:
[1] = logp (HCOOH), physicochemical characterization; settings: HCOOH (formic acid)
Matricaria inodora [2] = experiment: Pre-emergence herbicidal effect; assay type: in vivo
Text: (§1) 1. Pre-Emergence Herbicidal Effect and Crop Plant Compatibility Seeds of monocotyledonous and dicotyledonous weed plants and crop plants are laid out in wood-fiber pots in sandy loam and covered with soil. The compounds of the invention, formulated in the form of wettable powders (WP) or as emulsion concentrates (EC), are then applied to the surface of the covering soil as aqueous suspension or emulsion at a water application rate equating to 600 to 800 L/ha with addition of 0.2% wetting agent. After the treatment, the pots are placed in a greenhouse and kept under good growth conditions for the trial plants. The damage to the trial plants is scored visually after a trial duration of 3 weeks by comparison with untreated controls (herbicidal activity in percent (%): 100% efficacy=the plants have died, 0% efficacy=like control plants). [table]

Stellaria media [3] = experiment: Pre-emergence herbicidal effect; assay type: in vivo
Text: as §1

Setaria viridis [4] = experiment: Pre-emergence herbicidal effect; assay type: in vivo
Text: as §1

Veronica persica = experiment: Pre-emergence herbicidal effect; assay type: in vivo
Text: as §1

Echinochloa crus-galli = experiment: Pre-emergence herbicidal effect; assay type: in vivo
Text: as §1

Avena fatua = experiment: Pre-emergence herbicidal effect; assay type: in vivo; settings: dosage 320 g a.i./ha
Text: as §1

Polygpnum convolvulus [5] = experiment: Pre-emergence herbicidal effect; assay type: in vivo
Text: as §1

Amaranthus retroflexus [6] = experiment: Pre-emergence herbicidal effect; assay type: in vivo
Text: as §1

Abutilon theophrasti [7] = experiment: Pre-emergence herbicidal effect; assay type: in vivo; settings: dosage 320 g a.i./ha
Text: as §1

Alopecurus myosuroides = experiment: Pre-emergence herbicidal effect; assay type: in vivo
Text: as §1

Viola tricolor [8] = experiment: Pre-emergence herbicidal effect; assay type: in vivo
Text: as §1

Setaria viridis [9] = experiment: Post-emergence herbicidal effect; assay type: in vivo; settings: visual score after about 3 weeks
Experimental: (§2) [table] 2. Post-Emergence Herbicidal Effect and Crop Plant Compatibility Seeds of monocotyledonous and dicotyledonous weed and crop plants are laid out in sandy loam in wood-fiber pots, covered with soil and cultivated in a greenhouse under good growth conditions. 2 to 3 weeks after sowing, the test plants are treated at the one-leaf stage. The compounds of the invention, formulated in the form of wettable powders (WP) or as emulsion concentrates (EC), are then sprayed onto the green parts of the plants as aqueous suspension or emulsion at a water application rate equating to 600 to 800 L/ha with addition of 0.2% wetting agent. After the trial plants have been left to stand in a greenhouse under optimal growth conditions for about 3 weeks, the efficacy of the formulations is scored visually in comparison to untreated controls (herbicidal action in percent (%): 100% efficacy=the plants have died, 0% efficacy=like control plants).

Ipomoea purpurea = experiment: Post-emergence herbicidal effect; assay type: in vivo; settings: visual score after about 3 weeks
Experimental: as §2

Amaranthus retroflexus [10] = experiment: Post-emergence herbicidal effect; assay type: in vivo; settings: visual score after about 3 weeks
Experimental: as §2

Viola tricolor [11] = experiment: Post-emergence herbicidal effect; assay type: in vivo; settings: visual score after about 3 weeks
Experimental: as §2

Matricaria inodora [12] = experiment: Post-emergence herbicidal effect; assay type: in vivo; settings: dosage 320 g a.i./ha, visual score after about 3 weeks
Experimental: as §2

Stellaria media [13] = experiment: Post-emergence herbicidal effect; assay type: in vivo; settings: visual score after about 3 weeks
Experimental: as §2

Polygpnum convolvulus [14] = experiment: Post-emergence herbicidal effect; assay type: in vivo; settings: visual score after about 3 weeks
Experimental: as §2

Lolium multiflorum = experiment: Post-emergence herbicidal effect; assay type: in vivo; settings: dosage 320 g a.i./ha, visual score after about 3 weeks
Experimental: as §2

Cyperus esculentus = experiment: Post-emergence herbicidal effect; assay type: in vivo; settings: dosage 320 g a.i./ha, visual score after about 3 weeks
Experimental: as §2

Abutilon theophrasti [15] = experiment: Post-emergence herbicidal effect; assay type: in vivo; settings: visual score after about 3 weeks
Experimental: as §2

CC/C(=N\O)c1cnc(N[C@H]2c3cc(C)ccc3C[C@@H]2C)nc1CC [Compound 1.40a, N-[(1R,2S)-2,6-Dimethyl-2,3-dihydro-1H-inden-1-yl]-4-ethyl-5-[(1E)-N-hydroxypropanimidoyl]pyrimidine-2-amine]
chromatographic logP [1]: 3.71
Herbicidal activity against MATIN (Matricaria inodora [2]; dosage 80 g a.i./ha): 90%
Herbicidal activity against MATIN (Matricaria inodora [2]; dosage 320 g a.i./ha): 100%
Herbicidal activity against STEME (Stellaria media [3]; dosage 80 g a.i./ha): 100%
Herbicidal activity against STEME (Stellaria media [3]; dosage 320 g a.i./ha): 100%
Herbicidal activity against SETVI (Setaria viridis [4]; dosage 80 g a.i./ha): 100%
Herbicidal activity against SETVI (Setaria viridis [4]; dosage 320 g a.i./ha): 100%
Herbicidal activity against VERPE (Veronica persica; dosage 80 g a.i./ha): 100%
Herbicidal activity against VERPE (Veronica persica; dosage 320 g a.i./ha): 100%
Herbicidal activity against ECHCG (Echinochloa crus-galli; dosage 80 g a.i./ha): 90%
Herbicidal activity against ECHCG (Echinochloa crus-galli; dosage 320 g a.i./ha): 100%
Herbicidal activity against AVEFA (Avena fatua): 100%
Herbicidal activity against POLCO (Polygpnum convolvulus [5]; dosage 80 g a.i./ha): 100%
Herbicidal activity against POLCO (Polygpnum convolvulus [5]; dosage 320 g a.i./ha): 100%
Herbicidal activity against AMARE (Amaranthus retroflexus [6]; dosage 80 g a.i./ha): 100%
Herbicidal activity against AMARE (Amaranthus retroflexus [6]; dosage 320 g a.i./ha): 100%
Herbicidal activity against ABUTH (Abutilon theophrasti [7]): 100%
Herbicidal activity against ALOMY (Alopecurus myosuroides; dosage 80 g a.i./ha): 90%
Herbicidal activity against ALOMY (Alopecurus myosuroides; dosage 320 g a.i./ha): 100%
Herbicidal activity against VIOTR (Viola tricolor [8]; dosage 80 g a.i./ha): 100%
Herbicidal activity against VIOTR (Viola tricolor [8]; dosage 320 g a.i./ha): 100%
Herbicidal activity against SETVI (Setaria viridis [9]; dosage 80 g a.i./ha): 100%
Herbicidal activity against SETVI (Setaria viridis [9]; dosage 320 g a.i./ha): 100%
Herbicidal activity against PHBPU (Ipomoea purpurea; dosage 80 g a.i./ha): 80%
Herbicidal activity against PHBPU (Ipomoea purpurea; dosage 320 g a.i./ha): 100%
Herbicidal activity against AMARE (Amaranthus retroflexus [10]; dosage 80 g a.i./ha): 90%
Herbicidal activity against AMARE (Amaranthus retroflexus [10]; dosage 320 g a.i./ha): 90%
Herbicidal activity against VIOTR (Viola tricolor [11]; dosage 80 g a.i./ha): 90%
Herbicidal activity against VIOTR (Viola tricolor [11]; dosage 320 g a.i./ha): 90%

C/C(=N/Oc1ccc(F)cc1)c1cnc(N[C@H]2c3cc(C)ccc3C[C@@H]2C)nc1 [Compound 1.101b, N-[(1R,2S)-2,6-dimethyl-2,3-dihydro-1H-inden-1-yl]-5-[(1Z)-N-(4-fluorophenoxy)ethanimidoyl]pyrimidine-2-amine]
chromatographic logP [1]: 5.56
Herbicidal activity against MATIN (Matricaria inodora [2]; dosage 80 g a.i./ha): 80%
Herbicidal activity against MATIN (Matricaria inodora [2]; dosage 320 g a.i./ha): 100%
Herbicidal activity against STEME (Stellaria media [3]; dosage 80 g a.i./ha): 100%
Herbicidal activity against STEME (Stellaria media [3]; dosage 320 g a.i./ha): 100%
Herbicidal activity against SETVI (Setaria viridis [4]; dosage 320 g a.i./ha): 100%
Herbicidal activity against VERPE (Veronica persica; dosage 80 g a.i./ha): 100%
Herbicidal activity against VERPE (Veronica persica; dosage 320 g a.i./ha): 100%
Herbicidal activity against ECHCG (Echinochloa crus-galli; dosage 320 g a.i./ha): 90%
Herbicidal activity against POLCO (Polygpnum convolvulus [5]; dosage 320 g a.i./ha): 100%
Herbicidal activity against AMARE (Amaranthus retroflexus [6]; dosage 80 g a.i./ha): 90%
Herbicidal activity against AMARE (Amaranthus retroflexus [6]; dosage 320 g a.i./ha): 100%
Herbicidal activity against VIOTR (Viola tricolor [8]; dosage 80 g a.i./ha): 90%
Herbicidal activity against VIOTR (Viola tricolor [8]; dosage 320 g a.i./ha): 100%
Herbicidal activity against MATIN (Matricaria inodora [12]): 100%
Herbicidal activity against STEME (Stellaria media [13]; dosage 80 g a.i./ha): 80%
Herbicidal activity against STEME (Stellaria media [13]; dosage 320 g a.i./ha): 90%
Herbicidal activity against POLCO (Polygpnum convolvulus [14]; dosage 80 g a.i./ha): 80%
Herbicidal activity against POLCO (Polygpnum convolvulus [14]; dosage 320 g a.i./ha): 100%
Herbicidal activity against LOLMU (Lolium multiflorum): 100%
Herbicidal activity against PHBPU (Ipomoea purpurea; dosage 320 g a.i./ha): 100%
Herbicidal activity against CYPES (Cyperus esculentus): 100%
Herbicidal activity against AMARE (Amaranthus retroflexus [10]; dosage 320 g a.i./ha): 90%
Herbicidal activity against ABUTH (Abutilon theophrasti [15]; dosage 80 g a.i./ha): 80%
Herbicidal activity against ABUTH (Abutilon theophrasti [15]; dosage 320 g a.i./ha): 100%
Herbicidal activity against VIOTR (Viola tricolor [11]; dosage 80 g a.i./ha): 90%
Herbicidal activity against VIOTR (Viola tricolor [11]; dosage 320 g a.i./ha): 90%
